Source: ChEMBL document CHEMBL4814051, “Discovery of effective phosphodiesterase 2 inhibitors with antioxidant activities for the treatment of Alzheimer's disease” (Bioorg Med Chem Lett, 2021)

How the values were obtained:
[1] = Antioxidant activity assessed as trolox equivalent of AAPH-induced radical scavenging activity preincubated for 15 mins followed by AAPH addition and measured every minute for 80 mins by ORAC-FL assay; format: functional; conditions: time 95.0 min
[2] = Cytotoxicity against human SH-SY5Y cells assessed as cell viability at 50 uM incubated for 48 hrs by CCK-8 method; format: cell-based; conditions: read-out: Activity
[3] = Cytotoxicity against human SH-SY5Y cells assessed as cell viability at 100 uM incubated for 48 hrs by CCK-8 method; format: cell-based; conditions: read-out: Activity

Structure (SMILES): Cc1nc2ccc(NCc3cc(Cl)cc(Cl)c3O)cc2n2c(-c3ccccc3Cl)nnc12
- Activity (Trolox equivalents) [1]: 6.8

Structure (SMILES): Cc1nc2ccc(NCc3cc(Br)ccc3O)cc2n2c(-c3ccccc3Cl)nnc12
- Activity (Trolox equivalents) [1]: 2.6

Structure (SMILES): Cc1nc2ccc(NCc3ccccc3O)cc2n2c(-c3ccccc3Cl)nnc12
- Activity (Trolox equivalents) [1]: 3.7

Structure (SMILES): Cc1nc2ccc(NCc3ccccc3F)cc2n2c(-c3ccccc3Cl)nnc12
- Activity (Trolox equivalents) [1]: 0.6

Structure (SMILES): Cc1nc2ccc(NCc3c(O)cccc3F)cc2n2c(-c3ccccc3Cl)nnc12
- viability at 48 h, 50 µM [2]: 23%
- Activity (Trolox equivalents) [1]: 8.6
- viability at 48 h, 100 µM [3]: 10%

Structure (SMILES): Cc1nc2ccc(NCc3cc(Cl)ccc3O)cc2n2c(-c3ccccc3Cl)nnc12
- Activity (Trolox equivalents) [1]: 3.9

Structure (SMILES): COc1ccc(O)c(CNc2ccc3nc(C)c4nnc(-c5ccccc5Cl)n4c3c2)c1
- Activity (Trolox equivalents) [1]: 8

Structure (SMILES): Cc1nc2ccc(NCc3ccccn3)cc2n2c(-c3ccccc3Cl)nnc12
- Activity (Trolox equivalents) [1]: 5.5

Structure (SMILES): Cc1nc2ccc(NCc3ccc(F)cc3)cc2n2c(-c3ccccc3Cl)nnc12
- Activity (Trolox equivalents) [1]: 0.2

Structure (SMILES): Cc1nc2ccc(NCc3ccc(Cl)cc3O)cc2n2c(-c3ccccc3Cl)nnc12
- Activity (Trolox equivalents) [1]: 6.9

Structure (SMILES): Cc1nc2ccc(NCc3cc(F)ccc3O)cc2n2c(-c3ccccc3Cl)nnc12
- Activity (Trolox equivalents) [1]: 8.1

Structure (SMILES): Cc1nc2ccc(/N=C/c3ccc(F)cc3O)cc2n2c(-c3ccccc3Cl)nnc12
- Activity (Trolox equivalents) [1]: 0.2

Structure (SMILES): Cc1nc2ccc(/N=C/c3ccccc3O)cc2n2c(-c3ccccc3Cl)nnc12
- Activity (Trolox equivalents) [1]: 0.3

Structure (SMILES): Cc1nc2ccc(NCc3ccc(Cl)cn3)cc2n2c(-c3ccccc3Cl)nnc12
- Activity (Trolox equivalents) [1]: 1.9

Structure (SMILES): Cc1nc2ccc(NCc3cc(OC(F)(F)F)ccc3O)cc2n2c(-c3ccccc3Cl)nnc12
- Activity (Trolox equivalents) [1]: 5.2

Structure (SMILES): Cc1nc2ccc(NCc3ccc(F)cc3O)cc2n2c(-c3ccccc3Cl)nnc12
- viability at 48 h, 50 µM [2]: 53%
- Activity (Trolox equivalents) [1]: 8.4
- viability at 48 h, 100 µM [3]: 39%

Structure (SMILES): COc1ccc2[nH]cc(CCNC(C)=O)c2c1
- Activity (Trolox equivalents) [1]: 2
